# Values quoted from earlier work, collected in paper PMC6311893, “Computational prediction of plasma protein binding of cyclic peptides from small molecule experimental data using sparse modeling techniques” (BMC Bioinformatics, 2018).
# Tested on: plasma protein
# Conditions: fraction bound to plasma protein; small molecule dataset, sheet 1-SM (Set Dte = test, Dtr = training); ref Ingle et al.; cited from earlier work
row,Molecule,PPB (fb)
1,CO[C@H]1O[C@@H]2O[C@@]3(C)CC[C@H]4[C@H](C)CC[C@@H]([C@H]1C)[C@@]24OO3 [artemether],0.5
2,O=C(O)c1cn(-c2cccc(O)c2)c2cc(N3CCNCC3)c(F)cc2c1=O [8b(m-OH)],0.35
3,O=C(O)CCNC(=O)c1ccc(/N=N/c2ccc(O)c(C(=O)O)c2)cc1 [balsalazide],0.99
4,CNS(=O)(=O)CCc1ccc2[nH]cc(C3CCN(C)CC3)c2c1 [Naratriptan],0.29
5,NS(=O)(=O)c1cc2c(cc1C(F)(F)F)NC(Cc1ccccc1)NS2(=O)=O (stereo not shown) [bendrofluazide],0.94
6,CCN(CC)CCNC(=O)c1cc(Cl)c(N)cc1OC [Metoclopramide],0.37
7,C=CCOc1ccc(CC(=O)O)cc1Cl [alclofenac],0.99
8,CN(C)CCC=C1c2ccccc2C=Cc2ccccc21 [cyclobenzaprine],0.93
9,NC(Cc1cc(I)c(Oc2cc(I)c(O)c(I)c2)c(I)c1)C(=O)O (stereo not shown) [thyroxine],0.99
10,CC1(C)SC2C(NC(=O)C(Br)c3ccccc3)C(=O)N2C1C(=O)O (stereo not shown) [penicillin21],0.82
11,N[C@@H]1CN(c2c(F)cc3c(=O)c(C(=O)O)cn([C@@H]4C[C@@H]4F)c3c2Cl)CC12CC2 [Sitafloxacin],0.49
12,NC(C(=O)NC1C(=O)N2C(C(=O)O)=C(Cl)CCC12)c1ccccc1 (stereo not shown) [loracarbef],0.25
13,CC(C)Cc1ccc(C(C)C(=O)NC(C)C(=O)O)cc1 (stereo not shown) [JMC_09],0.96
14,C[C@H](N[C@@H](CCc1ccccc1)C(=O)O)C(=O)N1CCC[C@H]1C(=O)O [Enalaprilat],0.46
15,Nc1ncn([C@H]2C[C@H](O)[C@@H](CO)O2)c(=O)n1 [Decitabine],0
16,C=CCNc1nc(NCC=C)nc(N2CCN(C(c3ccc(F)cc3)c3ccc(F)cc3)CC2)n1 [almitrine],0.99
17,CO/N=C(\C(=O)N[C@@H]1C(=O)N2C(C(=O)OCOC(=O)C(C)(C)C)=C(/C=C\c3scnc3C)CS[C@H]12)c1csc(N)n1 [cefditoren-pivoxil],0.88
18,OC(CNCC(O)C1CCc2cc(F)ccc2O1)C1CCc2cc(F)ccc2O1 (stereo not shown) [nebivolol],0.98

# Same assay, conditions: fraction bound to plasma protein; small molecule dataset, sheet 1-SM, Set Dtr; ref Ingle et al.; cited from earlier work
row,Molecule,PPB (fb)
1,CCn1cc(C(=O)O)c(=O)c2cc(F)c(N3CCNCC3)nc21 [Enoxacin],0.26
2,CCCCCN(CCCOC)C(=O)[C@@H](CCC(=O)O)NC(=O)c1ccc(Cl)c(Cl)c1 [Dexloxiglumide],0.98
3,COc1ccc([C@]2(C#N)CC[C@@H](C(=O)O)CC2)cc1OC1CCCC1 [Cilomilast],0.99
4,NC[C@H]1CC[C@H](C(=O)O)CC1 [tranexamic acid],0.03
5,Nc1ccc(S(=O)(=O)c2ccc(N)cc2)cc1 [Dapsone],0.75
6,COc1ccc2c(C(=S)N(C)CC(=O)O)cccc2c1C(F)(F)F [tolrestat],0.99
7,Cc1onc(-c2ccccc2)c1C(=O)N[C@@H]1C(=O)N2[C@@H]1SC(C)(C)[C@@H]2C(=O)O [Oxacillin],0.92
8,C=C[C@H]1C[N@@]2CC[C@H]1C[C@H]2[C@H](O)c1ccnc2ccc(OC)cc12 [Quinine],0.81
9,Oc1ncnc2[nH]ncc12 [Allopurinol],0.02
10,CO[C@@]1(NC(=O)C2SC(=C(C(N)=O)C(=O)O)S2)C(=O)N2C(C(=O)O)=C(CSc3nnnn3C)CS[C@@H]21 (stereo partly shown) [Cefotetan],0.84
11,NNC(=O)c1ccncc1 [Isoniazid],0.01
12,CC[C@H]1OC(=O)[C@H](C)[C@@H](O[C@H]2C[C@@](C)(OC)[C@@H](O)[C@H](C)O2)[C@H](C)[C@@H](O[C@@H]2O[C@H](C)C[C@H](N(C)C)[C@H]2O)[C@](C)(O)C[C@@H](C)C(=O)[C@H](C)[C@@H](O)[C@]1(C)O [Erythromycin],0.86
13,OCCN1CCN(CCCN2c3ccccc3Sc3ccc(Cl)cc32)CC1 [Perphenazine],0.92
14,CN1CCN(C2=Nc3cc(Cl)ccc3Nc3ccccc32)CC1 [Clozapine],0.95
15,CCN(CC)CCNC(=O)c1ccc(N)cc1 [Procainamide],0.16
16,CCC1=C(C)CN(C(=O)NCCc2ccc(S(=O)(=O)NC(=O)N[C@H]3CC[C@H](C)CC3)cc2)C1=O [Glimepiride],0.99
17,COc1ccccc1OCCNCC(O)COc1cccc2[nH]c3ccccc3c12 (stereo not shown) [Carvedilol],0.96
18,c1ccc(CC2=NCCN2)cc1 [tolazoline],0.23
19,COc1ccc(Cl)cc1C(=O)NCCc1ccc(S(=O)(=O)NC(=O)NC2CCCCC2)cc1 [Glyburide],0.98
20,C[C@]12CCC(=O)C=C1CC[C@@H]1[C@@H]2[C@@H](O)C[C@@]2(C)[C@H]1CC[C@]2(O)C(=O)CO [Hydrocortisone],0.8
21,C[C@@H](O[C@H]1OCCN(Cc2n[nH]c(=O)[nH]2)[C@H]1c1ccc(F)cc1)c1cc(C(F)(F)F)cc(C(F)(F)F)c1 [Aprepitant],0.95
22,Cc1c(Cl)cccc1Nc1ccccc1C(=O)O [tolfenamic acid],0.99

# Same assay, conditions: fraction bound to plasma protein; small molecule dataset, sheet 1-SM; ref Ingle et al.; cited from earlier work
row,Molecule,PPB (fb)
1,Nc1ccc(S(=O)(=O)Nc2nccs2)cc1 [sulfathiazole],0.67
2,CSc1ccc2c(c1)N(CCC1CCCCN1C)c1ccccc1S2 (stereo not shown) [thioridazine],0.98
3,C/C=C/C[C@@H](C)C(=O)[C@H]1C(=O)N[C@@H](C(C)C)C(=O)N(C)CC(=O)N(C)[C@@H](CC(C)C)C(=O)N[C@@H](C(C)C)C(=O)N(C)[C@@H](CC(C)C)C(=O)N[C@@H](C)C(=O)N[C@H](C)C(=O)N(C)[C@@H](CC(C)C)C(=O)N(C)[C@@H](CC(C)C)C(=O)N(C)[C@@H](C(C)C)C(=O)N1C [Valspodar],0.98
4,Nc1ccc(O)c(C(=O)O)c1 [mesalamine],0.45
5,C#C[C@]1(O)CC[C@H]2[C@@H]3CCC4=CC(=O)CC[C@@H]4[C@H]3CC[C@@]21C [norethisterone],0.8
6,O=C(O)COc1ccc(C(=O)c2cccs2)c(Cl)c1Cl [tienilic acid],0.99
7,Nc1ccc(S(=O)(=O)Nc2ccc(Cl)nn2)cc1 [sulfachlorpyridazine],0.97
8,C#C[C@]1(O)CC[C@H]2[C@@H]3CCc4cc(OC)ccc4[C@H]3CC[C@@]21C [mestranol],0.98
9,CCCCC(OCC)C(=O)NC1C(=O)N2C1SC(C)(C)C2C(=O)O (stereo not shown) [penicillin10],0.74
10,CN(CCOc1ccc(CC2SC(=O)NC2=O)cc1)c1ccccn1 (stereo not shown) [Rosiglitazone],0.99
11,CC1(C)SC2C(NC(=O)c3ccccc3)C(=O)N2C1C(=O)O (stereo not shown) [penicillin14],0.87
12,Fc1ccc(C(c2ccc(F)cc2)N2CCN(C/C=C/c3ccccc3)CC2)cc1 [flunarizine],0.95
13,C=C(CC(=O)c1ccc(-c2ccccc2Cl)cc1)C(=O)O [Itanoxone],0.98
14,CC(Oc1ccc2ccccc2c1)C(=O)NC1C(=O)N2C1SC(C)(C)C2C(=O)O (stereo not shown) [penicillin69],0.95
15,C[C@@H]1C[C@H]2[C@@H]3C[C@H](F)C4=CC(=O)C=C[C@]4(C)[C@H]3[C@@H](O)C[C@]2(C)[C@H]1C(=O)CO [fluocortolone],0.9
16,CC(Oc1cccc(F)c1)C(=O)NC1C(=O)N2C1SC(C)(C)C2C(=O)O (stereo not shown) [penicillin61],0.84
17,COC(C(=O)NC1C(=O)N2C1SC(C)(C)C2C(=O)O)c1ccccc1 (stereo not shown) [penicillin38],0.62
18,O=C(c1ccc(OCCN2CCCCC2)cc1)c1c(-c2ccc(O)cc2)sc2cc(O)ccc12 [raloxifene],0.97
19,CC(C(=O)O)c1ccc(C(=O)c2cccs2)cc1 (stereo not shown) [Suprofen],0.99
20,CC(C(N)=O)c1ccc(OS(=O)(=O)C(F)(F)F)cc1 (stereo not shown) [JMC_03],0.92
21,CCOCC(=O)NC1C(=O)N2C1SC(C)(C)C2C(=O)O (stereo not shown) [penicillin6],0.28
22,CCC(OC)C(=O)NC1C(=O)N2C1SC(C)(C)C2C(=O)O (stereo not shown) [penicillin9],0.2
23,CO[C@]12C[C@@H](COC(=O)c3cncc(Br)c3)CN(C)[C@@H]1Cc1cn(C)c3cccc2c13 [nicergoline],0.95
24,COc1cc(NS(=O)(=O)c2ccc(N)cc2)nc(OC)n1 [sulfadimethoxine],0.95
25,CN(C)CCc1c[nH]c2ccc(C[C@H]3COC(=O)N3)cc12 [Zolmitriptan],0.25
26,CC(COc1ccccc1)NC(C)C(O)c1ccc(O)cc1 (stereo not shown) [isoxsuprine],0
27,COC(C(=O)NC1C(=O)N2C1SC(C)(C)C2C(=O)O)c1cccc(Br)c1 (stereo not shown) [penicillin39],0.88

# Same assay, conditions: plasma; cited from earlier work
row,Molecule,PPB (fb)
1,O=[N+]([O-])OCC(CO[N+](=O)[O-])O[N+](=O)[O-] [nitroglycerin],0.6
2,C[C@]12CC[C@H](O)C[C@H]1CC[C@@H]1[C@@H]2CC[C@]2(C)[C@@H](C3=CC(=O)OC3)CC[C@]12O [Digitoxigenin],0.93
3,Rolitetracycline,0.5
4,C=CC[N@@+]12CC[C@@]34c5ccccc5N5/C=C6/[C@H]7C[C@H]8[C@@]9(CC[N@@+]8(CC=C)C/C7=C/CO)c7ccccc7N(/C=C(/[C@@H](C[C@@H]31)/C(=C\CO)C2)[C@H]54)[C@@H]69 [alcuronium],0.4
5,CN1CCC[C@H]1c1cccnc1 [Nicotine],0.05
6,O=P1(N(CCCl)CCCl)NCCCO1 (stereo not shown) [Cyclophosphamide],0.15
7,lacidipine,0.95
8,CC1(C)SC2C(NC(=O)Cc3cccs3)C(=O)N2C1C(=O)O (stereo not shown) [penicillin71],0.58
9,CN1C(=O)CC(=O)N(c2ccccc2)c2cc(Cl)ccc21 [clobazam],0.92
10,O=C1CN=C(c2ccccc2)c2cc(Cl)ccc2N1CC1CC1 [prazepam],0.97
11,CO[C@H]1[C@@H](O)C[C@H](O[C@H]2[C@@H](O)C[C@H](O[C@H]3[C@@H](O)C[C@H](O[C@H]4CC[C@@]5(C)[C@H](CC[C@@H]6[C@@H]5C[C@@H](O)[C@]5(C)[C@@H](C7=CC(=O)OC7)CC[C@]65O)C4)O[C@@H]3C)O[C@@H]2C)O[C@@H]1C [metildigoxin],0.15
12,CCC1(C2=CCCCC2)C(=O)NC(=O)NC1=O [cyclobarbital],0.7
